Measurements as given in patent US7582786B2, “Synthetic catalytic free radical scavengers useful as antioxidants for prevention and therapy of disease” (Eukarion Inc., priority 1996, dated 2009).

What was measured:
[1] = Catalase activity, decomposition of hydrogen peroxide monitored at 240 nm (Example 1); assay type: biochemical; conditions: Example 1, H2O2 decomposition at 240 nm
Procedure: Catalase activity was measured using a spectrophotometric method in which the decomposition of hydrogen peroxide is monitored at 240 nm according to the method of Aebi et al. (1984) Methods Enzymol. 105: 121, incorporated herein by reference. One unit of catalase activity is defined as the amount of enzyme (or salen-metal complex) required to decompose 1 μmole of hydrogen peroxide in one minute.

[2] = SOD activity, inhibition of cytochrome C reduction by xanthine plus xanthine oxidase (Example 1); assay type: biochemical; conditions: Example 1, cytochrome C reduction
Procedure: The SOD activity of the compounds was determined by evaluating the inhibition of the reduction of cytochrome C produced by the oxygen free radical generating system, xanthine plus xanthine oxidase. Cytochrome C reduction is monitored spectrophotometrically at 550 nm according to the method described in Darr et al. (1987) Arch. Biochem. Biophys. 258: 351, incorporated herein by reference. The concentration of xanthine oxidase is adjusted such that it produces a rate of reduction of cytochrome C at 550 nm of 0.025 absorbance unit per minute. Under these conditions, the amount of SOD activity required to inhibit the rate of cytochrome C reduction by 50 percent (i.e., to a rate of 0.0125 absorbance unit per minute) is defined as one unit of activity. Salen-metal complexes are identified as antioxidants if they have at least 0.1 unit of activity at a concentration of 1 mM under these standard assay conditions.

[3] = Peroxidase activity with t-BHP as substrate, ABTS oxidation; assay type: biochemical
Procedure: Peroxidase activity was assayed by monitoring the hydrogen peroxide-dependent oxidation of 2,2′-azino-bis(3-ethylbenzthiazoline-6) sulfonic acid (ABTS) spectrophotometrically. Standard assay mixtures consisted of 50 mM sodium phosphate, pH 8.1, 0.9% sodium chloride, 0.5 mM ABTS, and H2O2 and salen manganese complex as indicated. Where indicated, 50 mM sodium phosphate buffers of pH 6.0 or pH 7.1 were substituted. Assays were conducted at 27±0.2° C. ABTS oxidation was monitored at 740 or 500 nm to eliminate interference by the salen manganese complexes, many of which absorb in the vicinity of the λmax of oxidized ABTS, and to avoid absorbance values that exceeded the linear range of the spectrophotometer. The amount of oxidized ABTS was estimated using an Δε740 of 20,300 M^−1cm^−1 or an Δε500 of 3400 M^−1cm^−1 calculated based upon the published molar extinction coefficient oat 405 nm (36,800).
(In comparison, horseradish peroxidase utilized t-BHP with an ABTS oxidation rate that was about 5.4% of the rate with H2O2).

[4] = tested on: brain homogenates; assay: Iron-induced lipid peroxidation in brain homogenates (MDA); assay type: biochemical, rat
Procedure: Lipid peroxidation was induced by incubating a mixture consisting of 0.25 ml homogenate, 0.25 ml ASCF with test compounds, and 10 μM FeCl2 for 1 hr at 35° C. under an atmosphere equilibrated with O2:CO2(95:5). Following the incubation, 0.1 ml of the sample was extracted with trichloroacetic acid and analyzed for thiobarbituric acid reactive material as described previously, using authentic malonyldialdehyde (MDA) as a standard.

[5] = tested on: Human dermal fibroblasts (HF cells); assay: Cell protection assay, tert-butylhydroperoxide (t-BHP) toxicity, XTT; assay type: cell-based; conditions: for Cell viability, absorbance at 490 nm uncorrected for blank: t-BHP 0.5 mM
Procedure: (§1) Human dermal fibroblasts (HF cells) were obtained from the American type tissue Culture Collection at passage 1 and cultured and propagated in a medium (HF medium) consisting of Dulbecco's Modified Eagle's Medium with 4.5 g/l D-glucose, 10% calf serum 4 mM glutamine, 50 units/ml penicillin, and 50 μg/ml streptomycin in a 37° C. humidified incubator equilibrated with 5% CO2. Cells were used at passages 5 or 6 for experiments. For cell protection assays, HF cells were seeded at a density of about 15,000 cells per cm2 onto 96-well culture plates and allowed to grow to confluence. To assess protection tert-butylhydroperoxide (t-BHP) toxicity, confluent cell layers were first treated with the indicated concentrations of test compounds dissolved in HF medium for 18 hr. The medium was then replaced with fresh medium containing test compounds and 0.5 mM tert-butylhydroperoxide (t-BHP) and cells were incubated for another 18 hr. The medium was then removed and replaced with fresh HF medium (100 μl per well) without test compounds or t-BHP. Fifty μl of XTT reagent (Boeringer Mannheim, Inc.), prepared as described by the manufacturer, was then added to each well and the plates returned to the incubator. After 2 hr., the absorbance at 490 nm was measured in a BioRad (Richmond, Calif.) Model 3550 plate-reader, using a reference wavelength of 655 nm. Control cells that had not been exposed to test compounds or toxic agents were included among the samples treated with XTT reagent. Absorbance measurements for blank wells, containing HF medium and XTT reagent but no cells, were also determined. To analyze protection from glucose/glucose oxidase toxicity, confluent cell layers were incubated with HF medium containing glucose oxidase (0.019 units/ml) along with test compounds, as indicated, for 18 hr in the tissue culture incubator. Fresh HF medium was then added and cell viability assessed using the XTT reagent as described above. For both these models, concentrations of toxic agents were selected that were reproducibly completely lethal. Cytotoxicity assessments were routinely confirmed by visual inspection of the cell layers prior to addition of the XTT reagent.

[6] = SOD activity, xanthine/xanthine oxidase with cytochrome C as acceptor (Example 2); assay type: biochemical; conditions: relative to C7 (C7 = 100)
Method in brief: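 Superoxide was generated by 120 µM xanthine and 0.2 U/ml xanthine oxidase in 50 mM sodium phosphate pH 7.8 at 27 °C, with salen manganese compounds at ≥4 concentrations in duplicate.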

[7] = Peroxidase activity, H2O2-dependent oxidation of ABTS (Example 2); assay type: biochemical; conditions: for Peroxidase rate: 10 μM salen manganese complex, 0.2 mM H2O2; for Peroxidase: relative to C7 (C7 = 100)
Method in brief: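 ABTS oxidation by salen manganese complex (10 μM) with 0.2 mM H2O2 in 50 mM sodium phosphate pH 8.1 (or pH 6.0/7.1 where indicated), 0.9% NaCl, 0.5 mM ABTS, 27±0.2 °C. Oxidized ABTS read spectrophotometrically at 740 or 500 nm and quantified from Δε740 20,300 or Δε500 3400 M^−1cm^−1.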

[8] = tested on: Human dermal fibroblasts (HF cells); assay: Cell protection assay, glucose/glucose oxidase toxicity, XTT; assay type: cell-based
Procedure: as §1
Catalase and peroxidase activities were assayed as described in Example 2. Catalase assays contained 10 μM salen-manganese complex and 10 mM hydrogen peroxide. Peroxidase assays contained 10 μM salen-manganese complex and 0.2 mM hydrogen peroxide. Glucose-glucose oxidase toxicity assays were performed using human dermal fibroblasts as described in Example 2.

[9] = Catalase activity, conversion of H2O2 to oxygen, polarographic oxygen electrode (Example 2); assay type: biochemical
Method in brief: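 Clark-type oxygen electrode at 25 °C in 50 mM sodium phosphate pH 8.1, 0.9% NaCl, with 10 μM salen-manganese complex and 10 mM H2O2. Initial rates from slope of first ~5 s, corrected for H2O2-alone rate; endpoint O2 as maximal minus pre-substrate baseline.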

[10] = tested on: brain microsomes; assay: Lipid peroxidation induced in brain microsomes by iron and ascorbate (MDA)
Excerpt: A series of salen-metal complexes were synthesized and their catalytic activities determined. […] FIGS. 24A-24H show structural formulae of further salen-metal compounds which were synthesized and evaluated.

[11] = 10 μM salen manganese complex, 10 mM H2O2

| Catalase Activity [1] [units/mM] | SOD Activity [2] [units/mM] | Compound | peroxidase rate with t-BHP relative to C32 [3] | MDA levels, percent of control ([4]; 1 μM) [%] | MDA levels, percent of control ([4]; 5 μM) [%] | MDA levels, percent of control ([4]; 10 μM) [%] | MDA levels, percent of control ([4]; 25 μM) [%] | Cell viability, absorbance at 490 nm uncorrected for blank ([5]; 2.5 μM) | Cell viability, absorbance at 490 nm uncorrected for blank ([5]; 5 μM) | Cell viability, absorbance at 490 nm uncorrected for blank ([5]; 10 μM) | Cell viability, absorbance at 490 nm uncorrected for blank ([5]; 20 μM) | Cell viability, absorbance at 490 nm uncorrected for blank ([5]; 40 μM) | synergistic toxicity with t-BHP ([5]; 80 μM) | Cell viability, absorbance at 490 nm uncorrected for blank ([5]; 80 μM) | SOD [6] | Peroxidase rate [7] [μM ABTS oxidized/min] | Peroxidase [7] | protection against glucose and glucose oxidase (in words) [8] | Catalase rate [9, 11] [μM O2/min] | Endpoint [9, 11] [maximal μM O2] | further results |
| --- | --- | --- | --- | --- | --- | --- | --- | --- | --- | --- | --- | --- | --- | --- | --- | --- | --- | --- | --- | --- | --- |
| 179 | 69 | CC(C)(C)c1cc2c(c(C(C)(C)C)c1)[O][Mn]([Cl])[O]c1c(cc(C(C)(C)C)cc1C(C)(C)C)C=NC1CCCCC1N=C2 (centres unmarked) [Compound C10] |  |  |  |  |  |  |  |  |  |  |  |  |  |  |  |  |  |  |  |
| 46 | 101 | CC(C)(C)c1cc(Cl)cc2c1[O][Mn]([Cl])[O]c1c(cc(Cl)cc1C(C)(C)C)C=NC1CCCCC1N=C2 (centres unmarked) [Compound C11] |  |  |  |  |  |  |  |  |  |  |  |  |  |  |  |  |  |  |  |
| 144 | 4397 | COc1cc2c(c(C(C)(C)C)c1)[O][Mn]([Cl])[O]c1c(cc(OC)cc1C(C)(C)C)C=NC1CCCCC1N=C2 (centres unmarked) [Compound C12] |  |  |  |  |  |  |  |  |  |  |  |  |  |  |  |  |  |  |  |
|  |  | CC(=O)[O][Mn]1[O]c2c(F)cccc2C=NCCN=Cc2cccc(F)c2[O]1 [Compound C36] | about twice as fast as C32 | 95 | 37 | 16 | 4 | 0.28 ± 0.01 | 0.29 ± 0.01 | 1.13 ± 0.05 | 1.44 ± 0.04 | 1.28 ± 0.45 | possible synergistic toxicity | 0.79 ± 0.34 | 104 | 22.2 ± 0.8 | 129 | about equally as effective as C7 | 167.5 ± 9.8 | 27.9 ± 2.3 | Catalase endpt. ([9]; relative to C7 (C7 = 100)): 104; Catalase rate ([9]; relative to C7 (C7 = 100)): 128 |
|  |  | Fc1cccc2c1[O][Mn]([Cl])[O]c1c(F)cccc1C=NCCN=C2 [Compound C37] | about twice as fast as C32 | 94 | 43 | 25 | 8 | 0.28 ± 0.01 | 0.28 ± 0.01 | 1.20 ± 0.06 | 1.42 ± 0.05 | 1.53 ± 0.02 | possible synergistic toxicity | 1.20 ± 0.02 | 115 | 23.3 ± 0.6 | 92 | about equally as effective as C7 | 182.6 ± 26.8 | 28.3 ± 0.5 | Catalase endpt. ([9]; relative to C7 (C7 = 100)): 104; Catalase rate ([9]; relative to C7 (C7 = 100)): 117 |
|  |  | Vitamin E |  |  |  |  |  |  |  |  |  |  |  |  |  |  |  |  |  |  | inhibition of lipid peroxidation in brain microsomes [10]: inhibition of lipid peroxidation |
